Experimental data: PubChem BioAssay (NCI)
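Assay format: 96-well plates, 48-hour exposure. GI50: concentration for 50% inhibition of growth. TGI marks complete inhibition of growth.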

Assays:
Experiment in all cases: DTP human tumour cell line panel, 48 h; in the data active means GI50 below about 0.43 µM; inactive means the rest
T-47D breast = test system: T-47D breast
SK-MEL-5 melanoma = test system: SK-MEL-5 melanoma
UO-31 renal = test system: UO-31 renal
COLO 205 colon = test system: COLO 205 colon
A498 renal = test system: A498 renal
SN12C renal = test system: SN12C renal
UACC-62 melanoma = test system: UACC-62 melanoma
M14 melanoma = test system: M14 melanoma
NCI-H522 lung = test system: NCI-H522 lung
SNB-75 CNS = test system: SNB-75 CNS
TK-10 renal = test system: TK-10 renal
UACC-257 melanoma = test system: UACC-257 melanoma
IGROV1 ovarian = test system: IGROV1 ovarian
HCT-116 colon = test system: HCT-116 colon
HCC-2998 colon = test system: HCC-2998 colon
NCI-H460 lung = test system: NCI-H460 lung
DU-145 prostate = test system: DU-145 prostate
SW-620 colon = test system: SW-620 colon
SF-268 CNS = test system: SF-268 CNS
HOP-92 NSCLC = test system: HOP-92 NSCLC
HS 578T breast = test system: HS 578T breast
OVCAR-4 ovarian = test system: OVCAR-4 ovarian
OVCAR-8 ovarian = test system: OVCAR-8 ovarian
SK-MEL-28 melanoma = test system: SK-MEL-28 melanoma
SK-MEL-2 melanoma = test system: SK-MEL-2 melanoma
NCI/ADR-RES ovarian = test system: NCI/ADR-RES ovarian
K-562 leukemia = test system: K-562 leukemia
LOX IMVI melanoma = test system: LOX IMVI melanoma
SF-539 CNS = test system: SF-539 CNS
HL-60(TB) leukemia = test system: HL-60(TB) leukemia
SNB-19 CNS = test system: SNB-19 CNS
ACHN renal = test system: ACHN renal
MOLT-4 leukemia = test system: MOLT-4 leukemia
EKVX NSCLC = test system: EKVX NSCLC
NCI-H226 lung = test system: NCI-H226 lung
MCF7 breast = test system: MCF7 breast
HT29 colon = test system: HT29 colon
786-0 renal = test system: 786-0 renal
MDA-MB-435 = test system: MDA-MB-435
BT-549 breast = test system: BT-549 breast
NCI-H23 lung = test system: NCI-H23 lung
SK-OV-3 ovarian = test system: SK-OV-3 ovarian
HOP-62 NSCLC = test system: HOP-62 NSCLC
SF-295 CNS = test system: SF-295 CNS
CCRF-CEM leukemia = test system: CCRF-CEM leukemia
U251 CNS = test system: U251 CNS
MDA-MB-468 breast = test system: MDA-MB-468 breast
OVCAR-5 ovarian = test system: OVCAR-5 ovarian
MALME-3M melanoma = test system: MALME-3M melanoma
RXF 393 renal = test system: RXF 393 renal
HCT-15 colon = test system: HCT-15 colon
A549 NSCLC = test system: A549 NSCLC
OVCAR-3 ovarian = test system: OVCAR-3 ovarian
PC-3 prostate = test system: PC-3 prostate
MDA-MB-231 breast = test system: MDA-MB-231 breast
RPMI-8226 leukemia = test system: RPMI-8226 leukemia
KM12 colon = test system: KM12 colon
CAKI-1 renal = test system: CAKI-1 renal

COC1=C[C@]23CCC(=O)N2CCc2cc4c(cc2[C@@H]3[C@@H]1OC(=O)[C@H](C)O)OCO4
36.4 µM: TGI (U251 CNS)
32.8 µM: TGI (BT-549 breast)
5.85 µM: TGI (RXF 393 renal)
36.3 µM: TGI (SF-295 CNS)
30.3 µM: TGI (SNB-75 CNS)
35.6 µM: TGI (HS 578T breast)
24.5 µM: TGI (NCI-H23 lung)
33.4 µM: TGI (HOP-92 NSCLC)
41.6 µM: TGI (CCRF-CEM leukemia)
32.1 µM: TGI (A498 renal)
30.4 µM: TGI (ACHN renal)
16.2 µM: TGI (MALME-3M melanoma)
inactive: GI50 (T-47D breast) 6.98 µM | GI50 (SK-MEL-5 melanoma) 3.7 µM | GI50 (UO-31 renal) 5.28 µM | GI50 (COLO 205 colon) 7.67 µM | GI50 (A498 renal) 6.02 µM | GI50 (SN12C renal) 14.5 µM | GI50 (UACC-62 melanoma) 9.25 µM | GI50 (M14 melanoma) 6.74 µM | GI50 (NCI-H522 lung) 3.89 µM | GI50 (SNB-75 CNS) 6.59 µM | GI50 (TK-10 renal) 15.8 µM | GI50 (UACC-257 melanoma) 10.5 µM | GI50 (IGROV1 ovarian) 6.52 µM | GI50 (HCT-116 colon) 2.33 µM | GI50 (HCC-2998 colon) 2.27 µM | GI50 (NCI-H460 lung) 1.65 µM | GI50 (DU-145 prostate) 12.1 µM | GI50 (SW-620 colon) 8.06 µM | GI50 (SF-268 CNS) 15.3 µM | GI50 (HOP-92 NSCLC) 6.12 µM | GI50 (HS 578T breast) 8.04 µM | GI50 (OVCAR-4 ovarian) 8.79 µM | GI50 (OVCAR-8 ovarian) 11.7 µM | GI50 (SK-MEL-28 melanoma) 8.47 µM | GI50 (SK-MEL-2 melanoma) 12.6 µM | GI50 (NCI/ADR-RES ovarian) 13.7 µM | GI50 (K-562 leukemia) 2.61 µM | GI50 (LOX IMVI melanoma) 2.31 µM | GI50 (SF-539 CNS) 2.99 µM | GI50 (HL-60(TB) leukemia) 2.01 µM | GI50 (SNB-19 CNS) 4.85 µM | GI50 (ACHN renal) 3.65 µM | GI50 (MOLT-4 leukemia) 1.87 µM | GI50 (EKVX NSCLC) 10.5 µM | GI50 (NCI-H226 lung) 3.52 µM | GI50 (MCF7 breast) 1.54 µM | GI50 (HT29 colon) 4.41 µM | GI50 (786-0 renal) 11 µM | GI50 (MDA-MB-435) 11.2 µM | GI50 (BT-549 breast) 10.5 µM | GI50 (NCI-H23 lung) 7.5 µM | GI50 (SK-OV-3 ovarian) 7.82 µM | GI50 (HOP-62 NSCLC) 10.2 µM | GI50 (SF-295 CNS) 9.24 µM | GI50 (CCRF-CEM leukemia) 4.77 µM | GI50 (U251 CNS) 6.76 µM | GI50 (MDA-MB-468 breast) 2.3 µM | GI50 (OVCAR-5 ovarian) 11.4 µM | GI50 (MALME-3M melanoma) 2.62 µM | GI50 (RXF 393 renal) 1.63 µM | GI50 (HCT-15 colon) 5.08 µM | GI50 (A549 NSCLC) 7.13 µM | GI50 (OVCAR-3 ovarian) 4.11 µM | GI50 (PC-3 prostate) 6.71 µM | GI50 (MDA-MB-231 breast) 13.2 µM | GI50 (RPMI-8226 leukemia) 3.23 µM | GI50 (KM12 colon) 10.4 µM | GI50 (CAKI-1 renal) 14.1 µM
13.1 µM: TGI (NCI-H460 lung)
10.2 µM: TGI (MCF7 breast)
31.5 µM: TGI (COLO 205 colon) | TGI (SK-MEL-28 melanoma)
12.4 µM: TGI (SK-MEL-5 melanoma)
14.8 µM: TGI (SF-539 CNS)
42.1 µM: TGI (UACC-257 melanoma)
10.5 µM: TGI (HCC-2998 colon)
51.5 µM: TGI (SK-OV-3 ovarian)
15.8 µM: TGI (M14 melanoma)
31.1 µM: TGI (SNB-19 CNS)
25 µM: TGI (HCT-15 colon)
47.1 µM: TGI (T-47D breast)
15.1 µM: TGI (MDA-MB-468 breast)
50.6 µM: TGI (A549 NSCLC)
45.5 µM: TGI (MDA-MB-435)
> 52 µM: TGI (SN12C renal) | TGI (UACC-62 melanoma) | TGI (TK-10 renal) | TGI (IGROV1 ovarian) | TGI (HCT-116 colon) | TGI (DU-145 prostate) | TGI (SW-620 colon) | TGI (SF-268 CNS) | TGI (OVCAR-4 ovarian) | TGI (SK-MEL-2 melanoma) | TGI (NCI/ADR-RES ovarian) | TGI (K-562 leukemia) | TGI (HL-60(TB) leukemia) | TGI (MOLT-4 leukemia) | TGI (EKVX NSCLC) | TGI (HT29 colon) | TGI (HOP-62 NSCLC) | TGI (OVCAR-5 ovarian) | TGI (MDA-MB-231 breast) | TGI (KM12 colon) | TGI (CAKI-1 renal)
44.6 µM: TGI (PC-3 prostate)
48.9 µM: TGI (OVCAR-8 ovarian)
39.3 µM: TGI (UO-31 renal)
13.3 µM: TGI (LOX IMVI melanoma)
29.8 µM: TGI (NCI-H226 lung)
21 µM: TGI (RPMI-8226 leukemia)
42.9 µM: TGI (786-0 renal)
17.7 µM: TGI (NCI-H522 lung)
42.2 µM: TGI (OVCAR-3 ovarian)
